# Data from US20210052593A1, “Compositions and Methods for the Treatment of Macrophage Activation Syndrome” (Children's Hospital Medical Center, priority 2018, published 2021).
# What was measured:
# MAS patients = conditions: cited from earlier work
# SJIA patients = conditions: observed MAS rates in phase III trials, even if underlying SJIA well controlled; cited from earlier work
# [1] = treatment of MAS; cited from earlier work
# IFN-induced signature = conditions: clinical trial of anakinra in SJIA, Quartier et al; vs placebo, regardless of response status; cited from earlier work
# [2] = test system: perforin-deficient mice infected with murine CMV; conditions: cited from earlier work
# [3] = test system: SJIA patient with recurrent MAS; test: Use of Tadekinig-alfa in an SJIA patient with recurrent MAS; format: in vivo, human; conditions: one SJIA patient with recurrent MAS
molecule,measurement,setting,value
rilonacept,occurrence of MAS in treated patients,MAS patients; literature report,MAS has been seen
canakinumab,protection against MAS,SJIA patients,do not provide protection against MAS
COc1cc([C@@H]2c3cc4c(cc3[C@@H](O[C@@H]3O[C@@H]5CO[C@@H](C)O[C@H]5[C@H](O)[C@H]3O)[C@H]3COC(=O)[C@H]23)OCO4)cc(OC)c1O [etoposide],associated toxicity / side effects,[1],"Life threatening bone marrow suppression, short-term, and hematologic malignancies later in life"
tocilizumab,protection against MAS,SJIA patients,do not provide protection against MAS
anakinra,strength of the IFN-induced signature,IFN-induced signature,sustained increase
same,treatment of MAS,MAS patients; literature reports,successful treatment of MAS
"synthetic IL-18BP: synthetic IL-18 binding protein administered to mice (protein, UniProt Q9Z0M9 29-193, looked up) Interleukin-18-binding protein: TSAPQTTATVLTGSSKDPCSSWSPAVPTKQYPALDVIWPEKEVPLNGTLTLSCTACSRFPYFSILYWLGNGSFIEHLPGRLKEGHTSREHRNTSTWLHRALVLEELSPTLRSTNFSCLFVDPGQVAQYHIILAQLWDGLKTAPSPSQETLSSHSPVSRSAGPGVA",liver damage,[2],ameliorated liver damage
same,overall survival,[2],no change
same,production of proinflammatory cytokines,[2],remained high
"Tadekinig-alfa (protein, UniProt O95998 31-194, looked up, recombinant IL18BP) Interleukin-18-binding protein: TPVSQTTTAATASVRSTKDPCPSQPPVFPAAKQCPALEVTWPEVEVPLNGTLSLSCVACSRFPNFSILYWLGNGSFIEHLPGRLWEGSTSRERGSTGTQLCKALVLEQLTPALHSTNFSCVLVDPEQVVQRHVVLAQLWAGLRATLPPTQEALPSSHSSPQQQG",frequency of MAS episodes,[3],remained unchanged
same,severity of MAS episodes,[3],reduced the severity of MAS episodes
